From patent US9079913B2, “Spiro-oxindole MDM2 antagonists” (The Regents of the University of Michigan, priority 2009, dated 2015)
Like-named read-outs stand apart in the source and are kept apart here.

Tests used:
[1] = target: recombinant human His-tagged MDM2 protein (residues 1-118) (Homo sapiens (Human), UniProt Q00987); test: Fluorescence-polarization MDM2 binding assay;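 note: fluorescence polarization read after three hours of incubation in potassium phosphate buffer containing bovine gamma globulin and Triton X-100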
recombinant human His-tagged MDM2 protein (residues 1-118), sequence (Q00987 1-118): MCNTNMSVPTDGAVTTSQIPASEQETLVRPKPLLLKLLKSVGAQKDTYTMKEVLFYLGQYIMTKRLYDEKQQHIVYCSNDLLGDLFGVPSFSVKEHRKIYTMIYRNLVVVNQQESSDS

[2] = tested on: Isogenic HCT-116 colon cancer cell lines; test: cells; assay type: cell-based;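 note: cells grown in 96-well plates in McCoy's 5A medium with 10% FBS, exposed to compound for 4 days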
Method: Cells were seeded in 96-well flat bottom cell culture plates at a density of 2−3×10^3 cells/well with compounds and incubated for 4 days.

[3] = tested on: cancer cell lines with wild-type p53 / mutated or deleted p53 (ATCC); test: Cell growth assay (WST-8), other cancer cell lines; assay type: cell-based
[4] = Table 19B, read-out: Binding affinities to MDM2 protein as determined by FP based assay IC50
[5] = Homo sapiens, HCT-116, read-out: Inhibition of cell growth IC50, HCT116 p53 KO, Table 19B, HCT116 p53 KO
[6] = Homo sapiens, HCT-116, read-out: Inhibition of cell growth IC50, HCT116 p53 WT, Table 19B, HCT116 p53 WT
[7] = Homo sapiens, LNCaP, Table 19B, LNCaP cells, read-out: Inhibition of cell growth IC50, LNCaP
[8] = Homo sapiens, PC-3, Table 19B, PC3 cells, read-out: Inhibition of cell growth IC50, PC3
[9] = Table 19D, read-out: MDM2 Binding Affinities IC50
[10] = Homo sapiens, HCT-116, read-out: HCT116p53KO IC50, Table 19D, HCT116 p53KO
[11] = Homo sapiens, HCT-116, read-out: HCT116p53WT IC50, Table 19D, HCT116 p53WT
[12] = Homo sapiens, LNCaP, Table 19D, LNCaP cells, read-out: LNCaP IC50
[13] = Homo sapiens, PC-3, Table 19D, PC3 cells, read-out: PC3 IC50
[14] = Table 19C, read-out: Bidning affinities to MDM2 as determined using FP assay IC50
[15] = Homo sapiens, HCT-116, read-out: Cell growth inhibition using WST assay, HCT116 p53KO IC50, Table 19C, HCT116 p53KO
[16] = Homo sapiens, HCT-116, read-out: Cell growth inhibition using WST assay, HCT116 p53WT IC50, Table 19C, HCT116 p53WT
[17] = Homo sapiens, LNCaP, Table 19C, LNCaP cells, read-out: Cell growth inhibition using WST assay, LNCaP IC50
[18] = Homo sapiens, PC-3, Table 19C, PC3 cells, read-out: Cell growth inhibition using WST assay, PC3 IC50
[19] = Table 19A, FP binding assay, read-out: MDM2 IC50
[20] = Homo sapiens, HCT-116, read-out: HCT-116 (p53-/-) IC50, Table 19A, HCT-116 p53-/-, cell growth
[21] = Homo sapiens, HCT-116, read-out: HCT-116 (p53 wild-type) IC50, Table 19A, HCT-116 p53 wild-type, cell growth
[22] = Homo sapiens, LNCaP, Table 19A, LNCAP cells, p53 wild-type, cell growth, read-out: LNCAP (p53 wild-type) IC50
[23] = Homo sapiens, PC-3, Table 19A, PC-3 cells, deleted p53, cell growth, read-out: PC-3 (deleted p53) IC50

SMILES	IC50 [1, 4]	IC50 [2, 5]	IC50 [2, 6]	IC50 [3, 7]	IC50 [3, 8]	IC50 [1, 9]	IC50 [2, 10]	IC50 [2, 11]	IC50 [3, 12]	IC50 [3, 13]	other results
CC(C)(C)C[C@H]1N[C@@H](C(=O)NCCN2CCOCC2)[C@H](c2cccc(Cl)c2F)[C@@]12C(=O)Nc1cc(F)c(F)cc12 [MI-721]	< 3 µM	18.4 ± 5.4 µM	1.5 ± 0.3 µM	1.4 µM	15.2 ± 1.4 µM	–	–	–	–	–	–
CN1CC[C@@H](NC(=O)[C@@H]2N[C@H](CC(C)(C)C)[C@]3(C(=O)Nc4cc(Cl)ccc43)[C@H]2c2cccc(Cl)c2F)[C@@H](F)C1 [MI-519-58]	–	–	–	–	–	< 1 µM	> 10 µM	< 3 µM	< 3 µM	> 10 µM	IC50 ([3]; Homo sapiens, Table 19D, SJSA-1 cells, unit inferred, read-out: SJSA-1): < 3 µM
CC(C)(C)C[C@H]1N[C@@H](C(=O)NCC[C@H](O)CO)[C@H](c2ccc(F)c(Cl)c2)[C@@]12C(=O)Nc1cc(F)ccc12 [MI-519-14]	–	–	–	–	–	< 1 µM	> 10 µM	< 5 µM	< 5 µM	> 10 µM	–
O=C(NCC[C@H](O)CO)[C@@H]1N[C@H](CC2(CCO)CCCC2)[C@]2(C(=O)Nc3cc(Cl)c(F)cc32)[C@H]1c1cccc(Cl)c1 [MI-319-37]	–	–	–	–	–	–	–	–	–	–	IC50 [1, 14]: < 1 µM; IC50 [2, 15]: > 30 µM; IC50 [2, 16]: < 10 µM; IC50 [3, 17]: < 5 µM; IC50 [3, 18]: > 30 µM
CC(C)CC(C)(C)C[C@H]1N[C@@H](C(=O)NCCN2CCOCC2)[C@H](c2cccc(Cl)c2F)[C@@]12C(=O)Nc1cc(F)c(F)cc12 [MI-730]	< 1 µM	7.8 ± 0.7 µM	1.4 ± 0.3 µM	1.7 ± 0.5 µM	6.3 ± 1.4 µM	–	–	–	–	–	–
CC(C)CC(C)(C)C[C@H]1N[C@@H](C(=O)NCC[C@H](O)CO)[C@H](c2ccc(F)c(Cl)c2)[C@@]12C(=O)Nc1cc(F)c(F)cc12 [MI-736]	< 1 µM	4.4 ± 0.9 µM	1 ± 0.2 µM	0.9 µM	6.3 ± 1.2 µM	–	–	–	–	–	–
CC(C)(C)C[C@H]1N[C@@H](C(=O)NCC[C@H](O)C=O)[C@H](c2cccc(Cl)c2)[C@@]12C(=O)Nc1cc(Cl)c(F)cc12 [MI-219-M1 (a)]	–	–	–	–	–	–	–	–	–	–	IC50 [1, 19]: < 1 µM; IC50 [2, 20]: > 10 µM; IC50 [2, 21]: < 3 µM; IC50 [3, 22]: < 3 µM; IC50 [3, 23]: > 10 µM
CC(C)(C)C[C@H]1N[C@@H](C(=O)NC[C@H](O)[C@H](O)CO)[C@H](Cc2cccc(Cl)c2)[C@@]12C(=O)Nc1cc(Cl)c(F)cc12 [MI-319-24]	–	–	–	–	–	–	–	–	–	–	IC50 [1, 14]: < 1 µM; IC50 [2, 15]: > 10 µM; IC50 [2, 16]: < 5 µM; IC50 [3, 17]: < 5 µM; IC50 [3, 18]: > 10 µM
CC(C)(C)C[C@H]1N[C@@H](C(=O)NCCC2CCC(O)C2)[C@H](c2cccc(Cl)c2)[C@@]12C(=O)Nc1cc(F)c(F)cc12 (stereo partly drawn) [MI-519-26]	–	–	–	–	–	< 10 µM	–	–	–	–	IC50 ([2]; read-out: HCT116p53KO IC50, Table 19D, HCT116 p53KO): > 10 µM; IC50 ([2]; read-out: HCT116p53WT IC50, Table 19D, HCT116 p53WT): < 5 µM; IC50 ([3]; Table 19D, LNCaP cells, read-out: LNCaP IC50): < 5 µM; IC50 ([3]; Table 19D, PC3 cells, read-out: PC3 IC50): > 10 µM
CN1[C@@H](C(=O)NCC[C@H](O)CO)[C@H](c2cccc(Cl)c2)[C@@]2(C(=O)Nc3cc(F)ccc32)[C@H]1CC(C)(C)C [MI-519-15-me]	–	–	–	–	–	< 5 µM	> 10 µM	5.2 µM	6.4 µM	> 10 µM	–
CC(C)(C)C[C@H]1N[C@@H](C(=O)NCC[C@H](O)CO)[C@H](c2ccc(F)c(Cl)c2)[C@@]12C(=O)Nc1cc(F)c(F)cc12 [MI-519-8]	–	–	–	–	–	< 3 µM	> 10 µM	< 5 µM	< 5 µM	> 10 µM	–
CCCC(C)(C)C[C@H]1N[C@@H](C(=O)NCC[C@H](O)CO)[C@H](c2cccc(Cl)c2)[C@@]12C(=O)Nc1cc(Cl)c(F)cc12 [MI-729]	< 1 µM	8.9 ± 0.1 µM	0.8 ± 0.2 µM	1 µM	6.1 ± 1.6 µM	–	–	–	–	–	–
CC(=O)N1CCN(C(=O)[C@@H]2N[C@H](CC(C)(C)C)[C@]3(C(=O)Nc4cc(Cl)c(F)cc43)[C@H]2c2cccc(Cl)c2)CC1 [MI-742]	–	–	–	–	–	–	–	–	–	–	IC50 [1, 19]: < 10 µM; IC50 [2, 20]: 19.9 ± 10.3 µM; IC50 [2, 21]: 1.7 ± 0.1 µM; IC50 [3, 22]: 2.2 ± 0.3 µM; IC50 [3, 23]: 10.2 ± 4.8 µM
